{"source": "patent US20160303113A1", "about": "(LAGUNA PHARMACEUTICALS ,INC., priority 2013, published 2016)", "key": {"[1]": {"experiment": "Example 2: daily doses of vanoxerine for 11 consecutive days, PK and hemodynamics", "format": "in vivo, human"}, "[2]": {"conditions": "healthy subjects; cited from earlier work"}, "[3]": {"experiment": "Example 3: daily vanoxerine for 14 days in healthy patients", "format": "in vivo, human", "procedure": "A standardized meal was served 15 minutes prior to each dosing."}, "[4]": {"experiment": "Example 4: daily vanoxerine for 7 days", "format": "in vivo, human"}, "[5]": {"system": "atrial fibrillation/atrial flutter", "experiment": "Example 6: placebo-controlled study of conversion of recent onset symptomatic AF/AFL to sinus rhythm", "format": "in vivo, human", "procedure": "The vanoxerine or identical appearing placebo was randomly assigned and administered in a double-blinded fashion.\nDefinition of “pure” atrial flutter: only Atrial Flutter (no AF) seen at −30, −15, and 0 time points. Conversion at any time within 24 hours."}, "[6]": {"experiment": "Pharmacokinetic parameters from tests in dogs", "format": "in vivo, dog", "excerpt": "Vanoxerine is primarily eliminated from the body in urine, bile, and feces. Indeed, a substantial amount of the drug is expelled, unabsorbed into the feces. […] However, the long half-life of the drug may actually be utilized to minimize the continuous or regular dosing of the drug."}}}
{"compound": "Fc1ccc(C(OCCN2CCN(CCCc3ccccc3)CC2)c2ccc(F)cc2)cc1", "note": "[Vanoxerine, 1-[2-[bis(4-fluorophenyl)methoxy]ethyl]-4-(3-phenylpropyl)piperazine]", "values": [{"measurement": "steady state reached", "setting": "[1]; 50, 75 and 100 mg daily doses", "result": "≤ 8", "unit": "days"}, {"measurement": "plasma levels at 24 hours", "setting": "[1]; 50, 75 and 100 mg doses", "result": "detectable"}, {"measurement": "effects at higher doses (concentration difficulties, increase systolic blood pressure, asthenia, feeling of drug influence)", "setting": "[2]", "result": "some effects were seen"}, {"measurement": "adverse events", "setting": "[3]; 25, 75, 125 mg daily for 14 days, healthy patients, after standardized meal", "result": "No significant adverse events"}, {"measurement": "all patients achieved steady state after", "setting": "[3]; repetitive dosing, all patients", "result": "7 to 10", "unit": "days"}, {"measurement": "systolic blood pressure and heart rate", "setting": "[4]; 100 mg daily for 7 days", "result": "increases"}, {"measurement": "systolic blood pressure and heart rate", "setting": "[4]; 150 mg daily for 7 days", "result": "increases"}, {"measurement": "Steady-state levels achieved", "setting": "[4]; 50, 100, 150 mg daily for 7 days, all patients", "result": "within one week"}, {"measurement": "Adverse events: number of AEs reported", "setting": "[5]; 200 mg (22)", "result": "reporting 8 AEs"}, {"measurement": "Adverse events: number of SAEs", "setting": "[5]; 200 mg (22)", "result": "(1 SAE)"}, {"measurement": "Adverse events: subjects reporting AEs, N (%)", "setting": "[5]; 200 mg (22)", "result": "4 (18%) subjects"}, {"measurement": "Adverse events: number of AEs reported", "setting": "[5]; 300 mg (25)", "result": "reporting 12 AEs"}, {"measurement": "Adverse events: subjects reporting AEs, N (%)", "setting": "[5]; 300 mg (25)", "result": "7 (28%) subjects"}, {"measurement": "Adverse events: number of AEs reported", "setting": "[5]; 400 mg (25)", "result": "reporting 23 AEs"}, {"measurement": "Adverse events: number of SAEs", "setting": "[5]; 400 mg (25)", "result": "AEs (1 SAE)"}, {"measurement": "Adverse events: subjects reporting AEs, N (%)", "setting": "[5]; 400 mg (25)", "result": "10 (40%) subjects"}, {"measurement": "tolerability", "setting": "[5]; all doses (200, 300, 400 mg)", "result": "well tolerated at all doses"}, {"measurement": "conversion to sinus rhythm of recent onset symptomatic AF/AFL, dose dependence", "setting": "[5]; doses of 200, 300 and 400 mg", "result": "highly statistically significant dose dependent increase"}, {"measurement": "relation of the two serious adverse events to study drug", "setting": "[5]; one at 200 mg (upper respiratory infection), one at 400 mg (lower extremity edema secondary to amlodipine)", "result": "neither related to the study drug"}, {"measurement": "elimination from the plasma T112", "setting": "[6]", "result": 22, "unit": "h"}]}
